Key:
morningglory = assay: Test A pre-/postemergence herbicide test; assay type: in vivo, Ipomoea spp.
Procedure, shortened: (§1)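 Seeds sown in sandy loam received a preemergence directed soil spray of compound in non-phytotoxic solvent with surfactant; postemergence plants (2–10 cm, one- to two-leaf stage) were sprayed to runoff at the same time. After ~10 days in greenhouse, injury was rated visually versus untreated controls (0 = no effect, 100 = complete control).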

[1] = system: smallflower umbrella sedge; assay: Test C flooded paddy test; assay type: in vivo, Cyperus difformis; conditions: for Plant response rating, Sedge, Umbrella: 500 g ai/ha, visual rating after 12 to 14 days
lambsquarters [2] = assay: Test B pre-/postemergence herbicide test; assay type: in vivo, Chenopodium album; conditions: for Lambsquarters plant response rating: postemergence, visual rating
Procedure, shortened: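 Plants compared with untreated controls 13–15 days post-treatment and given a visual 0–100 injury score. Applications: preemergence to seeds; postemergence at 1- to 4-leaf (2–18 cm); paddy species flooded, 2-leaf stage. Vehicle non-phytotoxic, surfactant included.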

johnsongrass = assay: Test C pre-/postemergence herbicide test; assay type: in vivo, Sorghum halepense; conditions: for Johnsongrass plant response rating: 500 g ai/ha
Procedure, shortened: (§2)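 Seeds were planted and sprayed preemergence with test chemicals in a non-phytotoxic solvent mixture containing surfactant; postemergence treatments went onto plants 2 to 18 cm tall (1- to 4-leaf stage). After 12 to 14 days in a greenhouse, injury was rated visually against untreated controls on a 0–100 scale.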

large crabgrass = assay: Test A pre-/postemergence herbicide test; assay type: in vivo, Digitaria sanguinalis
Procedure, shortened: as §1

giant foxtail = assay: Test A pre-/postemergence herbicide test; assay type: in vivo, Setaria faberi
Procedure, shortened: as §1

[3] = system: common (oilseed) sunflower; assay: Test C pre-/postemergence herbicide test; assay type: in vivo, Helianthus annuus; conditions: for Plant response rating (0 = no effect, 100 = complete control), Sunflower: 62 g ai/ha; for Plant response rating (0 = no effect, 100 = complete control), Sunflower / Plant response rating, Sunflower: preemergence; for Plant response rating, Sunflower: 125 g ai/ha, scale 0 (no effect) to 100 (complete control), visual, 12 to 14 days; for Sunflower plant response rating: Preemergence, 500 g ai/ha, scale 0 to 100, 0 no effect, 100 complete control
Procedure, shortened: as §2

lambsquarters [4] = assay: Test C pre-/postemergence herbicide test; assay type: in vivo, Chenopodium album; conditions: for Lambsquarters plant response rating: 500 g ai/ha
Procedure, shortened: as §2

[5] = Postemergence, 500 g ai/ha, 0 to 100 scale, 0 no effect, 100 complete control
[6] = Postemergence, 2000 g ai/ha, 0 to 100 scale, 0 no effect, 100 complete control
[7] = Preemergence, 500 g ai/ha, visual rating, 0 to 100 scale (0 no effect, 100 complete control)
[8] = Preemergence, 2000 g ai/ha, 0 to 100 scale, 0 no effect, 100 complete control
[9] = 62 g ai/ha, scale 0 to 100 (0 no effect, 100 complete control)
[10] = 125 g ai/ha, scale of 0 to 100, 0 is no effect, 100 is complete control
[11] = 250 g ai/ha, scale of 0 to 100, 0 is no effect, 100 is complete control
[12] = scale 0 to 100 (0 no effect, 100 complete control)
[13] = 500 g ai/ha, visual rating 0-100, 0 no effect, 100 complete control, preemergence
[14] = Postemergence, 500 g ai/ha, visual rating after 13 to 15 days, scale 0 (no effect) to 100 (complete control)
[15] = 125 g ai/ha, scale 0 (no effect) to 100 (complete control)
[16] = preemergence, 125 g ai/ha, 0 to 100 scale, 0 is no effect, 100 is complete control
[17] = 125 g ai/ha, scale 0 (no effect) to 100 (complete control), visual, 12 to 14 days, preemergence
[18] = Postemergence, 250 g ai/ha, scale 0 to 100, 0 no effect, 100 complete control
[19] = Preemergence, scale 0 to 100, 0 no effect, 100 complete control
[20] = postemergence, 125 g ai/ha, scale 0 to 100
[21] = postemergence, 62 g ai/ha, scale 0 to 100
[22] = Preemergence, 2000 g ai/ha, visual rating, 0 to 100 scale (0 no effect, 100 complete control)
[23] = Postemergence, 250 g ai/ha, 0 to 100 scale, 0 no effect, 100 complete control
[24] = Postemergence, 1000 g ai/ha, 0 to 100 scale, 0 no effect, 100 complete control
[25] = Preemergence, 1000 g ai/ha, visual rating, 0 to 100 scale (0 no effect, 100 complete control)
[26] = preemergence, 250 g ai/ha, visual injury, 0 to 100 scale (0 no effect, 100 complete control)

Row | Structure (SMILES) | Morningglory plant response rating (morningglory; [5]) | Plant response rating, Morningglory (morningglory; [6]) | Morningglory plant response rating (morningglory; [7]) | Sedge, Umbrella plant response rating [1, 9] | Sedge, Umbrella plant response rating [1, 10] | Sedge, Umbrella plant response rating [1, 11] | Plant response rating, Sedge, Umbrella [1, 12] | Plant response rating, Lambsquarters (lambsquarters [2]; [13]) | Plant response rating, Lambsquarters (lambsquarters [2]; [14]) | Lambsquarters plant response rating (lambsquarters [2]; [15]) | Plant response rating, Lambsquarters (lambsquarters [2]; [16]) | Plant response rating (0 = no effect, 100 = complete control), Johnsongrass (johnsongrass; 62 g ai/ha, preemergence) | Plant response rating, Johnsongrass (johnsongrass; [17]) | Johnsongrass plant response rating (johnsongrass; Postemergence, scale 0 to 100) | Plant response rating, Johnsongrass (johnsongrass; [18]) | Johnsongrass plant response rating (johnsongrass; [19]) | Plant response rating, Johnsongrass (johnsongrass; [20]) | Plant response rating, Johnsongrass (johnsongrass; [21]) | Crabgrass, Large plant response rating (large crabgrass; [5]) | Plant response rating (0 = no effect, 100 = complete control), Sunflower [3] | other results
1 | CCOC(=O)c1cc(NC(=O)c2cc(C(C)(C)C)nn2CC)ccc1OC [Compound 96] | 10 | 15 | 25 | 90 | 90 | 90 | 95 | 100 | 100 | 100 | 100 | 40 | 60 | 50 | 50 | 95 | 50 | 0 | 30 | 0 | Morningglory plant response rating (morningglory; [8]): 70; Plant response rating, Crabgrass, Large (large crabgrass; [6]): 70; Crabgrass, Large plant response rating (large crabgrass; [7]): 80; Crabgrass, Large plant response rating (large crabgrass; [8]): 100; Foxtail, Giant plant response rating (giant foxtail; [5]): 60; Plant response rating, Foxtail, Giant (giant foxtail; [6]): 80; Foxtail, Giant plant response rating (giant foxtail; [7]): 75; Foxtail, Giant plant response rating (giant foxtail; [8]): 95; Plant response rating, Sunflower [3]: 0; Sunflower plant response rating [3]: 35; Lambsquarters plant response rating (lambsquarters [4]; Postemergence, scale 0 to 100): 100; Plant response rating, Lambsquarters (lambsquarters [4]; [18]): 95; Plant response rating, Lambsquarters (lambsquarters [4]; [20]): 80; Plant response rating, Lambsquarters (lambsquarters [4]; [21]): 60
2 | CC(=NO)c1cccc(NC(=O)c2cc(C(C)(C)C)nn2CCF)c1 [Compound 115] | 35 | 30 | 70 | 80 | 85 | 90 | 95 | 100 | 100 | 80 | 100 | 70 | 100 | 100 | 80 | 100 | 50 | 30 | 75 | 0 | Morningglory plant response rating (morningglory; [22]): 90; Plant response rating, Crabgrass, Large (large crabgrass; [6]): 80; Crabgrass, Large plant response rating (large crabgrass; [7]): 100; Crabgrass, Large plant response rating (large crabgrass; [22]): 100; Foxtail, Giant plant response rating (giant foxtail; [5]): 60; Plant response rating, Foxtail, Giant (giant foxtail; [6]): 80; Foxtail, Giant plant response rating (giant foxtail; [7]): 50; Foxtail, Giant plant response rating (giant foxtail; [22]): 80; Sunflower plant response rating [3]: 10; Plant response rating (0 = no effect, 100 = complete control), Lambsquarters (lambsquarters [4]; 62 g ai/ha, preemergence): 100; Plant response rating, Lambsquarters (lambsquarters [4]; [17]): 100; Lambsquarters plant response rating (lambsquarters [4]; Postemergence, scale 0 to 100): 100; Plant response rating, Lambsquarters (lambsquarters [4]; [18]): 100; Lambsquarters plant response rating (lambsquarters [4]; [19]): 100; Plant response rating, Lambsquarters (lambsquarters [4]; [20]): 100; Plant response rating, Lambsquarters (lambsquarters [4]; [21]): 100
3 | CCn1nc(C(C)(C)C)cc1C(=O)Nc1cccc(SC)c1 [Compound 131] | – | – | – | 55 | – | 70 | 80 | 100 | – | 80 | 100 | 15 | 40 | – | – | – | – | – | – | 0 | Morningglory plant response rating (morningglory; [23]): 15; Plant response rating, Morningglory (morningglory; [24]): 15; Morningglory plant response rating (morningglory; [25]): 35; Morningglory plant response rating (morningglory; [26]): 15; Sedge, Umbrella plant response rating ([1]; 125 g ai/ha, scale 0 to 100 (0 no effect, 100 complete control)): 65; Lambsquarters plant response rating (lambsquarters [2]; 500 g ai/ha, scale 0 (no effect) to 100 (complete control)): 90; Crabgrass, Large plant response rating (large crabgrass; [23]): 20; Plant response rating, Crabgrass, Large (large crabgrass; [24]): 40; Crabgrass, Large plant response rating (large crabgrass; [25]): 85; Crabgrass, Large plant response rating (large crabgrass; [26]): 20; Foxtail, Giant plant response rating (giant foxtail; [23]): 10; Plant response rating, Foxtail, Giant (giant foxtail; [24]): 15; Foxtail, Giant plant response rating (giant foxtail; [25]): 75; Foxtail, Giant plant response rating (giant foxtail; [26]): 10; Plant response rating, Sunflower [3]: 0; Plant response rating (0 = no effect, 100 = complete control), Lambsquarters (lambsquarters [4]; 62 g ai/ha, preemergence): 95; Plant response rating, Lambsquarters (lambsquarters [4]; [17]): 100

From patent US20060069132A1, “Azolecarboxamide herbicides” (priority 2004, published 2006)
